ChEMBL document CHEMBL3758105 (J Med Chem, 2016)
pIC50, pKi: −log10 of the molar value. Values after ≈ are worked out from the molar mass of the structure shown. Each block holds one compound with its values, some of them ahead of it.

Key:
[1] = biological target: Stromelysin-1 (Homo sapiens, UniProt P08254); assay: Inhibition of MMP3 (unknown origin) catalytic domain using MCA-Arg-Pro-Leu-Gly-Leu-Dpa-Ala-Arg-Glu-Arg-NH2 as substrate preincubated for 60 mins followed by substrate addition by fluorescence assay
Chain of Stromelysin-1 (P08254 whole entry, the tested form may be a part): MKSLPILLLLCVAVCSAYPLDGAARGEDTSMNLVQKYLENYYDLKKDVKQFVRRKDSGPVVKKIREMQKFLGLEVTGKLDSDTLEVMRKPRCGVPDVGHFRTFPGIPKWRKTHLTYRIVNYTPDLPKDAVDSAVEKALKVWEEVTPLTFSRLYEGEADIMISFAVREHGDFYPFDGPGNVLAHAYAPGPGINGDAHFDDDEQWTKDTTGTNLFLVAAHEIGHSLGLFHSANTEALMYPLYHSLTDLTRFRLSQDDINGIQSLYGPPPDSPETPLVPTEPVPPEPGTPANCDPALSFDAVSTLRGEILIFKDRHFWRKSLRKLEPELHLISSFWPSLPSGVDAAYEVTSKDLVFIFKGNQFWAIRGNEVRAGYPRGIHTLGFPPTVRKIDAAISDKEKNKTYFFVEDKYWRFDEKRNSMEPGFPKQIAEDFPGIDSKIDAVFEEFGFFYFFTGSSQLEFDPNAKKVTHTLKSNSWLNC

[2] = biological target: Collagenase 3 (Homo sapiens, UniProt P45452); assay: Inhibition of full length human recombinant MMP13 using MCA-Arg-Pro-Leu-Gly-Leu-Dpa-Ala-Arg-Glu-Arg-NH2 as substrate preincubated for 60 mins followed by substrate addition by fluorescence assay
[3] = biological target: T1, Organic anion transporter 3 (Homo sapiens, UniProt Q8TCC7); assay: Inhibition of human OAT3 expressed in HEK cells assessed as reduction of [3H]-estrone sulfate uptake by radioactivity counting analysis; type: cell-based, HEK293
T1 sequence (Q8TCC7 whole entry): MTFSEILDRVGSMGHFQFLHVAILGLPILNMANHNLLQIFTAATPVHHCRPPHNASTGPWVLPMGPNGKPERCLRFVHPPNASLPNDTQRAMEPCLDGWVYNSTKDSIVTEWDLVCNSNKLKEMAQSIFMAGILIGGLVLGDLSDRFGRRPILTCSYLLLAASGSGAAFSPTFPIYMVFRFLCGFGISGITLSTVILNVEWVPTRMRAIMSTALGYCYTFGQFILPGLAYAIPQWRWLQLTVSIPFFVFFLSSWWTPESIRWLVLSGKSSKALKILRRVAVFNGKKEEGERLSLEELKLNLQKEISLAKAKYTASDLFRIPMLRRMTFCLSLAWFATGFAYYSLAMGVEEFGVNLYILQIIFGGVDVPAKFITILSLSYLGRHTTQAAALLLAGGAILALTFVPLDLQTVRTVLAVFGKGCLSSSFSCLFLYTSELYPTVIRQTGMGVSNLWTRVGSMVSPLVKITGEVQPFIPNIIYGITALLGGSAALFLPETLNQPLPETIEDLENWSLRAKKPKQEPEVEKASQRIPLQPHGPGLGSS

[4] = Half life of the compound assessed as compound rearrangement; type: physicochemical
[5] = biological target: CYP2C9 (Homo sapiens, UniProt P11712); assay: Inhibition of CYP2C9 in human liver microsomes assessed as reduction of diclofenac metabolism at 3 uM after 8 mins; type: ADME; details: probe diclofenac
Chain of CYP2C9 (P11712 whole entry): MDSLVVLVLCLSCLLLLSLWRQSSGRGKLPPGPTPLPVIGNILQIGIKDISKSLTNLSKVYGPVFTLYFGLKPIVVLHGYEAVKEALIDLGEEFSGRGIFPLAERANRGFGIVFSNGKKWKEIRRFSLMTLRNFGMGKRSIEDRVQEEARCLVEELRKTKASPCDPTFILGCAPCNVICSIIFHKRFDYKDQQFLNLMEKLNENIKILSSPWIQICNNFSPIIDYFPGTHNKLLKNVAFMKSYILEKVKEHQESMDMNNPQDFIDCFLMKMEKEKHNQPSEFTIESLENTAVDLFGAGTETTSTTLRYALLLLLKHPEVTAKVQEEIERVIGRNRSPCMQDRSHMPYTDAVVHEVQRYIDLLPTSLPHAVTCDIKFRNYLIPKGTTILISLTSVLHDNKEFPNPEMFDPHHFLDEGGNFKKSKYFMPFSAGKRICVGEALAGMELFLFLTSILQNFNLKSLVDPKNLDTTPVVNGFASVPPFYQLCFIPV

[6] = Intrinsic clearance in human liver microsomes measured over 40 mins by HPLC/MS analysis; type: ADME; details: read-out: CLH
[7] = Intrinsic clearance in rat liver microsomes measured over 40 mins by HPLC/MS analysis; type: ADME; details: read-out: CLH
[8] = Clearance in Sprague-Dawley rat at 1 mg/kg, iv administered as bolus dose by LC-MS/MS analysis; type: ADME, organism-based; details: in vivo
[9] = physchem; details: buffer, pH 7.4
[10] = tested on: Canis familiaris; assay: Free AUC in beagle dog at 1 mg/kg, po administered as cassette dosing; type: ADME, organism-based, Canis lupus familiaris; details: in vivo
[11] = Thermodynamic solubility of the compound in crystalline solid form in phosphate buffer at pH 7.4; type: physicochemical; details: read-out: Therm_solubility
[12] = Oral bioavailability in Sprague-Dawley rat at 1 mg/kg; type: ADME, organism-based; details: in vivo
[13] = Plasma protein binding in beagle dog at 1 mg/kg, po administered as cassette dosing; type: ADME, organism-based, Canis lupus familiaris; details: read-out: PPB (converted)
[14] = tested on: Canis familiaris; assay: Free Cmax in beagle dog at 1 mg/kg, po administered as cassette dosing; type: ADME, organism-based, Canis lupus familiaris; details: in vivo
[15] = Plasma protein binding in human; type: ADME, cell-free; details: read-out: PPB (converted)
[16] = biological target: Matrix metalloproteinase-14 (Homo sapiens, UniProt P50281); assay: Inhibition of MMP14 (unknown origin) catalytic domain using MCA-Arg-Pro-Leu-Gly-Leu-Dpa-Ala-Arg-Glu-Arg-NH2 as substrate preincubated for 60 mins followed by substrate addition by fluorescence assay
[17] = tested on: Rattus norvegicus; assay: Drug level in Sprague-Dawley rat treated with N-(4-Fluoro-3-methoxybenzyl)-6-(2-(((2S,5R)-5-(hydroxymethyl)-1,4-dioxan-2-yl)methyl)-2H-tetrazol-5-yl)-2-methylpyrimidine-4-carboxamide at 1 mg/kg, po; type: ADME, organism-based; details: in vivo
[18] = Drug level in cynomolgus monkey urine treated with N-(4-Fluoro-3-methoxybenzyl)-6-(2-(((2S,5R)-5-(hydroxymethyl)-1,4-dioxan-2-yl)methyl)-2H-tetrazol-5-yl)-2-methylpyrimidine-4-carboxamide; type: ADME, tissue-based, Macaca fascicularis; details: in vivo
[19] = tested on: Hepatocyte; assay: Drug level in human hepatocytes treated with N-(4-Fluoro-3-methoxybenzyl)-6-(2-(((2S,5R)-5-(hydroxymethyl)-1,4-dioxan-2-yl)methyl)-2H-tetrazol-5-yl)-2-methylpyrimidine-4-carboxamide; type: ADME, cell-based
[20] = Drug level in cynomolgus monkey hepatocytes treated with N-(4-Fluoro-3-methoxybenzyl)-6-(2-(((2S,5R)-5-(hydroxymethyl)-1,4-dioxan-2-yl)methyl)-2H-tetrazol-5-yl)-2-methylpyrimidine-4-carboxamide; type: ADME, cell-based, Macaca fascicularis, Hepatocyte
[21] = tested on: Cynomolgus monkey; assay: Drug level in cynomolgus monkey treated with N-(4-Fluoro-3-methoxybenzyl)-6-(2-(((2S,5R)-5-(hydroxymethyl)-1,4-dioxan-2-yl)methyl)-2H-tetrazol-5-yl)-2-methylpyrimidine-4-carboxamide at 1 mg/kg, po; type: ADME, organism-based, Macaca fascicularis; details: in vivo
[22] = Clearance in Sprague-Dawley rat at 0.2 mg/kg, iv administered as cassette bolus dose by LC-MS/MS analysis; type: ADME, organism-based; details: in vivo

Compound: Cc1cc(-c2nnn(C[C@H]3CC[C@H](C(=O)O)CC3)n2)cc(C(=O)NCc2ccc(F)cc2)n1
pIC50 [3]: 5.22
half-life [4]: 67 h

Compound: O=C(O)Cc1ccccc1Nc1c(Cl)cccc1Cl [DICLOFENAC]
half-life [4]: 0.5 h

Compound: Cn1c(=O)n(Cc2ccc(C(=O)O)cc2)c(=O)c2cc(C#CCc3ccccc3)ccc21
pIC50 [3]: 4.74

Compound: CNC(=O)[C@@H](NC(=O)[C@H](CC(C)C)[C@H](O)C(=O)NO)C(C)(C)C
pIC50 [16]: 5.00

Compound: Cc1cc(-c2nnn(C[C@H]3CC[C@H](CO)CC3)n2)cc(C(=O)NCc2cccc(F)c2)n1
pKi [2]: 6.96

Compound: Cc1cc(-c2nnn(C[C@H]3CC[C@H](CO)CC3)n2)cc(C(=O)NCc2ccccc2)n1
inhibition at 8 min, 3 µM [5]: 78%
pKi [2]: 6.92

Compound: COc1ccc(CNC(=O)c2cc3c(=O)n(Cc4ccc(C(=O)O)cc4)cnc3cn2)cc1
pIC50 [3]: 4.23

Compound: COc1cccc(CNC(=O)c2cc(-c3nnn(CC4CCCCC4)n3)cc(C)n2)c1
microsomal CLint [6]: 41.7 µL/min/mg
microsomal CLint [7]: 98.5 µL/min/mg
pKi [1]: < 5.00
clearance [8]: 3.81 L/h/kg
pKi [2]: 7.47
logD [9]: 4.37

Compound: COc1cccc(CNC(=O)c2cc(-c3nnn(C[C@H]4CC[C@H](C(=O)O)CC4)n3)cc(C)n2)c1
pKi [1]: < 5.00

Compound: COc1cccc(CNC(=O)c2cc(-c3nnn(C[C@H]4CC[C@H](C(N)=O)CC4)n3)cc(C)n2)c1
pKi [2]: 7.67

Compound: Cc1cc(-c2nnn(C[C@H]3CC[C@H](CO)CC3)n2)cc(C(=O)NCc2ccc(F)c(F)c2)n1
inhibition at 8 min, 3 µM [5]: 83%
pKi [2]: 7.53

Compound: Cc1cc(-c2nnn(C[C@H]3CC[C@H](CO)CC3)n2)cc(C(=O)NCc2cccc(C(F)(F)F)c2)n1
inhibition at 8 min, 3 µM [5]: 94%
pKi [2]: 7.62

Compound: Cc1cccc(CNC(=O)c2cc(-c3nnn(C[C@H]4CC[C@H](CO)CC4)n3)cc(C)n2)c1
inhibition at 8 min, 3 µM [5]: 93%
pKi [2]: 7.33

Compound: Cc1cc(-c2nnn(C[C@H]3CC[C@H](CO)CC3)n2)cc(C(=O)NCc2ccc(F)cc2)n1
inhibition at 8 min, 3 µM [5]: 56%
pKi [2]: 7.48

Compound: Cc1cc(-c2nnn(C[C@H]3CC[C@H](CO)CC3)n2)cc(C(=O)NCc2cccc(Cl)c2)n1
pKi [2]: 7.41

Second part, the compound after the results:

pKi [1]: < 5.00
pKi [2]: 8.35
Compound: COc1cccc(CNC(=O)c2cc(-c3nnn(C[C@H]4CC[C@H](O)CC4)n3)cc(C)n2)c1

pKi [1]: < 5.00
pKi [2]: 8.24
Compound: COc1cccc(CNC(=O)c2cc(-c3nnn(CC4CCN(S(C)(=O)=O)CC4)n3)cc(C)n2)c1

inhibition at 8 min, 3 µM [5]: 96%
pKi [2]: 8.42
Compound: Cc1cc(-c2nnn(C[C@H]3CC[C@H](CO)CC3)n2)cc(C(=O)NCc2ccc(F)c(C)c2)n1

microsomal CLint [6]: 53.1 µL/min/mg
microsomal CLint [7]: 192 µL/min/mg
clearance [8]: 3.27 L/h/kg
pKi [2]: 8.11
logD [9]: 3.22
Compound: COc1cccc(CNC(=O)c2cc(-c3nnn(CC4CCCCO4)n3)cc(C)n2)c1 (single isomer, unassigned; (-))

fAUC [10]: 3240 nM·h
microsomal CLint [6]: < 8 µL/min/mg
solubility thermodynamic [11]: 237 µM (≈ 108 µg/mL)
bioavailability [12]: 65%
fraction unbound [13]: 0.37
pKi [1]: < 5.00
fCmax [14]: 580 nM
clearance [8]: 0.636 L/h/kg
pKi [2]: 8.24
fraction unbound [15]: 0.31
Compound: COc1cccc(CNC(=O)c2cc(-c3nnn(C[C@H]4CO[C@H](CO)CO4)n3)nc(C)n2)c1 (racemic)

Drug metabolism [17]: metabolite_detected
Drug metabolism [18]: metabolite_detected
pKi [2]: 9.70
Drug metabolism [19]: metabolite_detected
Drug metabolism [20]: metabolite_detected
Drug metabolism [21]: metabolite_detected
Compound: COc1cc(CNC(=O)c2cc(-c3nnn(C[C@H]4CO[C@H](C(=O)O)CO4)n3)nc(C)n2)ccc1F

inhibition at 8 min, 3 µM [5]: 90%
pKi [2]: 8.40
Compound: Cc1cc(-c2nnn(C[C@H]3CC[C@H](CO)CC3)n2)cc(C(=O)NCc2ccc(F)c(Cl)c2)n1

pKi [1]: < 5.00
pKi [2]: 8.85
Compound: COc1cccc(CNC(=O)c2cc(-c3nnn(C[C@H]4CC[C@@H](NC(C)=O)CC4)n3)cc(C)n2)c1

pKi [1]: 5.14
pKi [2]: 8.57
Compound: COc1cccc(CNC(=O)c2cc(-c3nnn(C[C@H]4CC[C@H](C#N)CC4)n3)cc(C)n2)c1

pKi [1]: < 5.00
pKi [2]: 7.77
Compound: COc1cccc(CNC(=O)c2cc(-c3nnn(CC4CCCCO4)n3)cc(C)n2)c1 (single isomer, unassigned; (+))

pKi [1]: < 5.00
pKi [2]: 8.09
Compound: COc1cccc(CNC(=O)c2cc(-c3nnn(C[C@H]4CC[C@@H](NS(C)(=O)=O)CC4)n3)cc(C)n2)c1

pKi [1]: < 5.00
pKi [2]: 7.78
Compound: COc1cccc(CNC(=O)c2cc(-c3nnn(CC4CCCOC4)n3)cc(C)n2)c1 (racemic)

inhibition at 8 min, 3 µM [5]: 39%
pKi [2]: 8.92
Compound: COc1cc(CNC(=O)c2cc(-c3nnn(C[C@H]4CC[C@H](CO)CC4)n3)cc(C)n2)ccc1F

microsomal CLint [6]: < 8 µL/min/mg
bioavailability [12]: 113%
pKi [1]: < 5.00
clearance [8]: 0.588 L/h/kg
pKi [2]: 8.38
Compound: COc1cc(CNC(=O)c2cc(-c3nnn(C[C@@H]4CO[C@@H](CO)CO4)n3)nc(C)n2)ccc1F

pKi [1]: < 5.00
pKi [2]: 7.78
Compound: COc1cccc(CNC(=O)c2cc(-c3nnn(CC4CCN(C(C)=O)CC4)n3)cc(C)n2)c1

inhibition at 8 min, 3 µM [5]: 90%
pKi [2]: 8.20
Compound: Cc1cc(-c2nnn(C[C@H]3CC[C@H](CO)CC3)n2)cc(C(=O)NCc2ccc(F)c(C(F)(F)F)c2)n1

microsomal CLint [6]: 24.7 µL/min/mg
pKi [1]: < 5.00
clearance [22]: 4.66 L/h/kg
pKi [2]: 8.70
Compound: COc1cccc(CNC(=O)c2cc(-c3nnn(C[C@H]4CC[C@H](NC(C)=O)CC4)n3)cc(C)n2)c1

microsomal CLint [6]: 32.7 µL/min/mg
microsomal CLint [7]: 94.9 µL/min/mg
pKi [1]: < 5.00
clearance [8]: 4.6 L/h/kg
inhibition at 8 min, 3 µM [5]: 66%
pKi [2]: 8.68
logD [9]: 3.57
Compound: COc1cccc(CNC(=O)c2cc(-c3nnn(C[C@H]4CC[C@H](CO)CC4)n3)cc(C)n2)c1

fAUC [10]: 1230 nM·h
microsomal CLint [6]: < 8 µL/min/mg
solubility thermodynamic [11]: 28 µM (≈ 12.7 µg/mL)
microsomal CLint [7]: 15.7 µL/min/mg
bioavailability [12]: 48%
fraction unbound [13]: 0.24
pKi [1]: < 5.00
fCmax [14]: 66 nM
clearance [8]: 0.462 L/h/kg
pKi [2]: 7.93
logD [9]: 2.04
fraction unbound [15]: 0.14
Compound: COc1cccc(CNC(=O)c2cc(-c3nnn(C[C@H]4CO[C@H](CO)CO4)n3)cc(C)n2)c1 (racemic)

microsomal CLint [6]: < 8 µL/min/mg
pKi [1]: < 5.00
clearance [22]: 2.56 L/h/kg
pKi [2]: 9.60
Compound: COc1cccc(CNC(=O)c2cc(-c3nnn(C[C@H]4CC[C@H](NS(C)(=O)=O)CC4)n3)cc(C)n2)c1

microsomal CLint [6]: < 8 µL/min/mg
microsomal CLint [7]: 74 µL/min/mg
pKi [1]: < 5.00
clearance [8]: 1.55 L/h/kg
pKi [2]: 7.85
logD [9]: 2.49
Compound: COc1cccc(CNC(=O)c2cc(-c3nnn(CC4COCCO4)n3)cc(C)n2)c1 (racemic)

pKi [1]: 5.06
pKi [2]: 8.39
Compound: COc1cccc(CNC(=O)c2cc(-c3nnn(C[C@H]4CC[C@@H](CO)CC4)n3)cc(C)n2)c1

pKi [1]: < 5.00
pKi [2]: 7.96
Compound: COc1cccc(CNC(=O)c2cc(-c3nnn(C[C@H]4CC[C@@H](O)CC4)n3)cc(C)n2)c1
